This passage reports IC50 results from patent publication US7582645B2, “Pyrimidine derivatives for treatment of hyperproliferative disorders” (Bayer Pharmaceuticals Corporation, priority 2003, dated 2009).

Molecules are shown by their SMILES. Where a name gives a salt, the structure may show the parent alone.

One experiment has as its system HCT116 cells. Put plainly: HCT116 cytotoxic activity assay (Alamar Blue, 72 h). The conditions noted are these: Homo sapiens, HCT-116, 72 h compound exposure, greater than 500 nM but less than or equal to 2 μM. The format is cell-based. On the procedure: Representative compounds of this invention were tested for cytotoxicity using the above-described assay procedure with the following results: […]
(Alamar Blue is a resazurin reagent that responds to reducing activity.)
By IC50 is commonly meant the midpoint of a concentration-inhibition curve. Low values mean inhibition by little substance, high ones a need for much substance. Consider `CCCCc1ccc(-c2cc(Nc3ccc(Oc4ccnc(C#N)c4)cc3)nc(N)n2)cc1` [Example 220, 4-(4-{[2-amino-6-(4-butylphenyl)pyrimidin-4-yl]amino}phenoxy) pyridine-2-carbonitrile], for which the IC50 is 500 to 2000 nM.

`Nc1nc(Nc2ccc(Oc3ccnc(CNC(=O)N4CCOCC4)c3)cc2)cc(-c2ccccc2)n1` [Example 100, N-[(4-{4-[(2-amino-6-phenylpyrimidin-4-yl)amino]phenoxy}pyridin-2-yl)methyl]morpholine-4-carboxamide] showed a 50% inhibitory concentration (IC50) of 500 to 2000 nM.

With `COc1ccc(C(C)C)cc1-c1cc(Nc2ccc(Oc3ccnc(C#N)c3)cc2)nc(N)n1` [Example 245, 4-(4-{[2-amino-6-(5-isopropyl-2-methoxyphenyl)pyrimidin-4-yl]amino}phenoxy)pyridine-2-carbonitrile], the IC50 was in the range of 500 to 2000 nM.

In turn, `COc1ccncc1-c1cc(Nc2ccc(Oc3ccnc(C(F)(F)F)c3)cc2)nc(N)n1` [Example 203, 6-(4-methoxypyridin-3-yl)-N4*-(4-{[2-(trifluoromethyl)pyridin-4-yl]oxy}phenyl)pyrimidine-2,4-diamine] had a half-inhibitory concentration (IC50) of 500 to 2000 nM.

The compound `N#Cc1cc(Oc2ccc(Nc3cc(-c4cc(F)cc(F)c4)nc(N)n3)cc2)ccn1` [Example 276, 4-(4-{[2-amino-6-(3,5-difluorophenyl)pyrimidin-4-yl]amino}phenoxy)pyridine-2-carbonitrile] had a half-inhibitory concentration (IC50) of 500 to 2000 nM.

In the case of `COc1ccc(C(C)C)cc1-c1cc(Nc2ccc(Oc3ccnc(C(F)(F)F)c3)cc2)nc(N)n1` [Example 201, 6-(5-isopropyl-2-methoxyphenyl)-N4*-(4-{[2-(trifluoromethyl)pyridin-4-yl]oxy}phenyl)pyrimidine-2,4-diamine], the IC50 lay within 500 to 2000 nM.

Take `N#Cc1cc(Oc2ccc(Nc3cc(-c4ccc(F)cc4F)nc(N)n3)cc2)ccn1` [Example 247, 4-(4-{[2-amino-6-(2,4-difluorophenyl)pyrimidin-4-yl]amino}phenoxy)pyridine-2-carbonitrile]: the IC50 fell in the range of 500 to 2000 nM.

The compound `COCCNC(=O)c1cc(Oc2ccc(Nc3cc(-c4ccccc4)nc(N)n3)cc2)ccn1` [Example 23, 4-{4-[(2-amino-6-phenylpyrimidin-4-yl)amino]phenoxy}-N-(2-methoxyethyl)pyridine-2-carboxamide] showed an IC50 of 500 to 2000 nM.

In the case of `NC(=O)c1cc(Oc2cccc(Nc3cc(-c4cccnc4)nc(N)n3)c2)ccn1` [Example 297, 4-{3-[(2-amino-6-pyridin-3-ylpyrimidin-4-yl)amino]phenoxy} pyridine-2-carboxamide], the IC50 was in the range of 500 to 2000 nM.

Still in this experiment, the particulars now being: Homo sapiens, HCT-116, 72 h compound exposure, greater than 2 μM.
Compound `N#Cc1cc(Oc2ccc(Nc3cc(-c4cccc(OC(F)(F)F)c4)nc(N)n3)cc2)ccn1` [Example 274, 4-[4-({2-amino-6-[3-(trifluoromethoxy)phenyl]pyrimidin-4-yl}amino)phenoxy]pyridine-2-carbonitrile] gave an IC50 above 2000 nM.

Take `NC(=O)c1cc(Oc2ccc(Nc3cc(-c4cccs4)nc(N)n3)cc2)ccn1` [Example 255, 4-(4-{[2-amino-6-(2-thienyl)pyrimidin-4-yl]amino}phenoxy) pyridine-2-carboxamide]: the IC50 is above 2000 nM.

Take `CN(C)c1ccc(-c2cc(Nc3cccc(Oc4ccnc(C(N)=O)c4)c3)nc(N)n2)cc1` [Example 287, 4-[3-({2-amino-6-[4-(dimethylamino)phenyl]pyrimidin-4-yl}amino)phenoxy]pyridine-2-carboxamide]: the 50% inhibitory concentration (IC50) was above 2000 nM.

Consider `NC(=O)c1cc(Oc2cccc(Nc3cc(-c4ccc(F)cc4)nc(N)n3)c2)ccn1` [Example 74, 4-(3-{[2-amino-6-(4-fluorophenyl)pyrimidin-4-yl]amino}phenoxy) pyridine-2-carboxamide], for which the IC50 was above 2000 nM.

Compound `N#Cc1cc(Oc2ccc(Nc3cc(-c4cccnc4)nc(N)n3)cc2)ccn1` [Example 236, 4-{4-[(2-amino-6-pyridin-3-ylpyrimidin-4-yl)amino]phenoxy} pyridine-2-carbonitrile] registered a concentration for half-maximal inhibition (IC50) above 2000 nM.

Still in this experiment, the particulars now being: Homo sapiens, HCT-116, 72 h compound exposure, less than or equal to 500 nM.
`Cc1ccc(-c2cc(Nc3cccc(Oc4ccnc(C(N)=O)c4)c3)nc(N)n2)cc1N` [Example 302, 4-(3-{[2-amino-6-(3-amino-4-methylphenyl)pyrimidin-4-yl]amino}phenoxy)pyridine-2-carboxamide]: the IC50 was at most 500 nM.

Take `Nc1nc(Nc2cccc(Oc3ccnc(N4CCCC4)c3)c2)cc(-c2ccccc2)n1` [Example 121, 6-phenyl-N4*-{3-[(2-pyrrolidin-1-ylpyridin-4-yl)oxy]phenyl}pyrimidine-2,4-diamine]: the IC50 is at most 500 nM.

Take `Nc1nc(Nc2ccc(Oc3ccnc(C(=O)NCC(O)CO)c3)cc2)cc(-c2ccccc2)n1` (centres unmarked) [Example 80, 4-{4-[(2-amino-6-phenylpyrimidin-4-yl)amino]phenoxy}-N-(2,3-dihydroxypropyl)pyridine-2-carboxamide]: the 50% inhibitory concentration (IC50) was at most 500 nM.

`Cc1ccc(-c2cc(Nc3ccc(Oc4ccnc(C#N)c4)cc3)nc(N)n2)cc1` [Example 249, 4-(4-{[2-amino-6-(4-methylphenyl)pyrimidin-4-yl]amino}phenoxy) pyridine-2-carbonitrile] had a concentration for half-maximal inhibition (IC50) of at most 500 nM.

Turning to `Cc1cc(-c2cc(Nc3ccc(Oc4ccnc(C(F)(F)F)c4)cc3)nc(N)n2)ccc1N` [Example 180, 6-(4-amino-3-methylphenyl)-N4*-(4-{[2-(trifluoromethyl)pyridin-4-yl]oxy}phenyl)pyrimidine-2,4-diamine], the half-inhibitory concentration (IC50) is at most 500 nM.

Take `NC(=O)c1cc(Oc2ccc(Nc3cc(-c4ccc(F)cc4F)nc(N)n3)cc2)ccn1` [Example 264, 4-(4-{[2-amino-6-(2,4-difluorophenyl)pyrimidin-4-yl]amino}phenoxy)pyridine-2-carboxamide]: the concentration for half-maximal inhibition (IC50) is at most 500 nM.

Compound `Nc1nc(Nc2ccc(Oc3ccnc(Cl)c3)cc2F)cc(-c2ccccc2)n1` [Example 66, N4*-{4-[(2-chloropyridin-4-yl)oxy]-2-fluorophenyl}-6-phenylpyrimidine-2,4-diamine] gave an IC50 of at most 500 nM.

In the case of `Nc1nc(Nc2ccc(Oc3ccnc(NCCCN4CCOCC4)c3)cc2)cc(-c2ccccc2)n1` [Example 142, N4*-[4-({2-[(3-morpholin-4-ylpropyl)amino]pyridin-4-yl}oxy)phenyl]-6-phenylpyrimidine-2,4-diamine], the half-maximal inhibitory concentration (IC50) was at most 500 nM.

`COc1cc(-c2cc(Nc3ccc(Oc4ccnc(C(F)(F)F)c4)cc3)nc(N)n2)ccc1OC(=O)CNC(=O)OC(C)(C)C` [Example 149, 4-{2-amino-6-[(4-{[2-(trifluoromethyl)pyridin-4-yl]oxy}phenyl)amino]pyrimidin-4-yl}-2-methoxyphenyl N-(tert-butoxycarbonyl)glycinate] displayed an IC50 of at most 500 nM.

Turning to `NC(=O)c1cc(Oc2ccc(Nc3cc(-c4ccccc4OC(F)(F)F)nc(N)n3)cc2)ccn1` [Example 278, 4-[4-({2-amino-6-[2-(trifluoromethoxy)phenyl]pyrimidin-4-yl}amino)phenoxy]pyridine-2-carboxamide], the IC50 is at most 500 nM.

`Nc1ccc(Oc2ccc(Nc3cc(-c4ccccc4)nc(N)n3)cc2)cc1` [Example 62, N^4-[4-(4-aminophenoxy)phenyl]-6-phenylpyrimidine-2,4-diamine]: the 50% inhibitory concentration (IC50) was at most 500 nM.

`Nc1ccc(-c2cc(Nc3ccc(Oc4ccnc(C(F)(F)F)c4)cc3)nc(N)n2)cc1` [Example 164, 6-(4-aminophenyl)-N4*-(4-{[2-(trifluoromethyl)pyridin-4-yl]oxy}phenyl) pyrimidine-2,4-diamine hydrochloride] had a 50% inhibitory concentration (IC50) of at most 500 nM.

The compound `CC(C)c1ccc(-c2cc(Nc3ccc(Oc4ccnc(C(N)=O)c4)cc3)nc(N)n2)cc1` [Example 266, 4-(4-{[2-amino-6-(4-isopropylphenyl)pyrimidin-4-yl]amino}phenoxy) pyridine-2-carboxamide] returned a half-maximal inhibitory concentration (IC50) of at most 500 nM.

In turn, `N#Cc1cc(Oc2ccc(Nc3cc(-c4ccc[nH]4)nc(N)n3)cc2)ccn1` [Example 219, 4-(4-{[2-amino-6-(1H-pyrrol-2-yl)pyrimidin-4-yl]amino}phenoxy) pyridine-2-carbonitrile hydrochloride] showed an IC50 of at most 500 nM.

The compound `COc1cc(-c2cc(Nc3ccc(Oc4ccnc(C(F)(F)F)c4)cc3)nc(N)n2)ccc1OC(=O)CN` [Example 150, 4-{2-amino-6-[(4-{[2-(trifluoromethyl)pyridin-4-yl]oxy}phenyl)amino]pyrimidin-4-yl}-2-methoxyphenyl glycinate hydrochloride] came in with a half-inhibitory concentration (IC50) of at most 500 nM.

As to `Nc1nc(Nc2ccc(Cc3ccnc(C(F)(F)F)c3)cc2)cc(-c2ccccc2)n1` [Example 33, 6-phenyl-N^4-[4-(2-trifluoromethyl-pyridin-4-ylmethyl)-phenyl]-pyrimidin-2,4-diamine], the concentration for half-maximal inhibition (IC50) was at most 500 nM.

For the compound `Nc1nc(Nc2ccc(Oc3ccnc(C(F)(F)F)c3)cc2)cc(-c2cccc(F)c2F)n1` [Example 159, 6-(2,3-difluorophenyl)-N4*-(4-{[2-(trifluoromethyl)pyridin-4-yl]oxy}phenyl)pyrimidine-2,4-diamine], the IC50 is at most 500 nM.

Compound `Nc1nc(Nc2ccc(Oc3ccnc(-c4nnn[nH]4)c3)cc2)cc(-c2ccccc2)n1` [Example 46, 6-phenyl-N^4-{4-[2-(1H-tetrazol-5-yl)pyridin-4-yloxy]phenyl}pyrimidine-2,4-diamine] had a half-inhibitory concentration (IC50) of at most 500 nM.

`COc1cc(-c2cc(Nc3ccc(Oc4ccnc(C(F)(F)F)c4)cc3)nc(N)n2)ccc1O` [Example 166, 4-{2-amino-6-[(4-{[2-(trifluoromethyl)pyridin-4-yl]oxy}phenyl)amino]pyrimidin-4-yl}-2-methoxyphenol] yielded an IC50 of at most 500 nM.

The compound `Cc1cccc(-c2cc(Nc3ccc(Oc4ccnc(C(F)(F)F)c4)cc3)nc(N)n2)c1` [Example 212, 6-(3-methylphenyl)-N4*-(4-{[2-(trifluoromethyl)pyridin-4-yl]oxy}phenyl)pyrimidine-2,4-diamine] displayed an IC50 of at most 500 nM.

On to `Cc1cc(Oc2ccc(Nc3cc(-c4cccc(N)c4)nc(N)n3)cc2)ccn1` [Example 320, 6-(3-aminophenyl)-N4*-{4-[(2-methylpyridin-4-yl)oxy]phenyl} pyrimidine-2,4-diamine], for which the IC50 was at most 500 nM.
